Experimental data from US20250275537A1, “CARBOXAMIDE APYRASE INHIBITORS” (Texas Crop Science, Inc., priority 2024, published 2025).

Tested on: apyrase
Assay: Apyrase inhibition assay (Method 1)
Assay type: biochemical
Conditions: inhibitor conc at 1 mM stock, 10 μl per well; 1 hr room temperature; rounded average of at least two assay results
Procedure: Apyrase inhibitors useful as enhancers of pesticidal activity are assessed using an in vitro assay. The method of Windsor, Bio Techniques 33:1024-1030 (November 2002) was used as follows
96 well plates were used for the assay: (Greiner bio-one: REF-655901-96 well, PS, F-bottom, Clear, Non-binding)
• Reaction Buffer: 60 mM Hepes, 3 mM MgCl2, 3 mM CaCl2 and 3 mM ATP (pH 6.5) • Development Buffer A: 2% aqueous ammonium molybdate • Development Buffer B: 11% ascorbic acid in 37.5% TCA in water • Stop buffer C: 2% trisodium citrate in 2% acetic acid solution in water • Add 100 μl of reaction buffer to each well. • Add 10 μl of DMSO (control) or inhibitor/compound or compounds such as N1915 or orthovanadate to each well. (use inhibitor conc at 1 mM; orthovanadate at 2 mM and N1915 at 1 mM) • Add 10 μl of apyrase (concentration based on optimization —Dilute 1 U/μl enzyme to different concentrations such as 0.1U, 0.05U, 0.0025, 0.001U, 0.0005U—to find a good range) • Incubate plate at room temperature for 1 hr • Mix development buffer A and B in the ratio of 1:1.5 (just before use). • Add 50 ul of A:B mix in each well (incubate for 2 mins) • Add 50 ul of C in each well • Measure/Read Absorbance of plate @630 nm
Inhibitory data for the apyrase assay described above are provided for selected compounds in Table 3. In Table 3, D indicates inhibition of <10%.
With reference to Table 3, percent inhibition of apyrase is reported as the rounded average of at least two assay results.

Compound | % Inhibition of Apyrase
Cn1nc(Cn2c(=O)c3ccccc3c(=O)n2C)cc1Cl [Compound I-26, 2-((5-chloro-1-methyl-1H-pyrazol-3-yl)methyl)-3-methyl-2,3-dihydrophthalazine-1,4-dione] | C (C indicates inhibition of from 10% to 20%)
Cc1nc(NC(=O)c2ccc(C(=O)Nc3ccccc3)cc2)n[nH]1 [Compound I-39, N^1-(5-methyl-1H-1,2,4-triazol-3-yl)-N^4-phenylterephthalamide] | D (D indicates inhibition of <10%)
CC(C)n1cc2ccc(NC(=O)c3ccc4c(c3)C(=O)NC4=O)cc2n1 [Compound I-24, N-(2-isopropyl-2H-indazol-6-yl)-1,3-dioxoisoindoline-5-carboxamide] | C (C indicates inhibition of from 10% to 20%)
CNC(=O)c1cccc(C(=O)Nc2ccc3[nH]c(=O)sc3c2)c1 [Compound I-50, N^1-methyl-N^3-(2-oxo-2,3-dihydrobenzo[d]thiazol-6-yl)isophthalamide] | D (D indicates inhibition of <10%)
CCn1cc2ccc(NC(=O)c3cccc(C(=O)NC)c3)cc2n1 [Compound I-22, N^1-(2-ethy1-2H-indazol-6-yl)-N^3-methylisophthalamide] | C (C indicates inhibition of from 10% to 20%)
Nc1ccnc(CNC(=O)c2ccc(C(=O)Nc3ccccc3)cc2)n1 [Compound I-55, N^1-((4-aminopyrimidin-2-yl)methyl)-N^4-phenylterephthalamide] | D (D indicates inhibition of <10%)
O=C(Nc1ccc(-c2c[nH]cn2)cc1)c1cccc(C(=O)Nc2ccc(-c3c[nH]cn3)cc2)c1 [Compound I-17, N^1,N^3-bis(4-(1H-imidazol-4-yl)phenyl)isophthalamide] | B (B indicates inhibition of from 20% to 30%)
CCOC(=O)c1ccc(NC(=O)c2cccc(C(=O)Nc3ccc(C(=O)OCC)cc3)c2)cc1 [Compound I-7, diethy 1 4,4′-(isophthaloylbis(azanediyl))dibenzoate] | A (A indicates inhibition above 30%)
CCNC(=O)c1cc(NC(=O)c2ccc(C(=O)Nc3ccccc3)cc2)nc2ccccc12 [Compound I-13, N^1-(4-(ethylcarbamoyl)quinolin-2-yl)-N^4-phenylterephthalamide] | B (B indicates inhibition of from 20% to 30%)
Cc1nncn1CCNC(=O)c1ccc(C(=O)Nc2ccccc2)cc1 [Compound I-49] | D (D indicates inhibition of <10%)
COc1ccc(NC(=O)c2ccc(C(=O)Nc3ccc(OC)cc3OC)cc2)c(OC)c1 [Compound I-45, N^1,N^4-bis(2,4-dimethoxyphenyl)terephthalamide] | D (D indicates inhibition of <10%)
O=C(NCC#Cc1ccccc1)c1ccc(C(=O)Nc2ccccc2)cc1 [Compound I-23, N1-phenyl-N4-(3-phenylprop-2-yn-1-yl)terephthalamide] | C (C indicates inhibition of from 10% to 20%)
O=C1CCCc2ccc(NC(=O)c3ccc4c(c3)C(=O)NCCO4)cc2N1 [Compound I-60, 5-oxo-N-(2-oxo-2,3,4,5-tetrahydro-1H-benzo[b]azepin-8-yl)-2,3,4,5-tetrahydrobenzo[f][1,4]oxazepine-7-carboxamide] | D (D indicates inhibition of <10%)
O=C(NCc1cccc(-n2ccnc2)c1)c1ccc(C(=O)Nc2ccccc2)cc1 [Compound I-27, N^1-(3-(1H-imidazol-1-yl)benzyl)-N^4-phenylterephthalamide] | C (C indicates inhibition of from 10% to 20%)
CCc1noc(C)c1Cn1c(=O)c2ccccc2c(=O)n1C [Compound I-21, 2-((3-ethyl-5-methylisoxazol-4-yl)methyl)-3-methyl-2,3-dihydrophthalazine-1,4-dione] | C (C indicates inhibition of from 10% to 20%)
Cc1cc2c(cc1NC(=O)c1cccc(C(=O)Nc3ccccc3)c1)OCO2 [Compound I-64, N^1-(6-methylbenzo[d][1,3]dioxol-5-yl)-N^3-phenylisophthalamide] | B (B indicates inhibition of from 20% to 30%)
O=C(Nc1cccc2c1CNC2=O)c1cccc(C(=O)Nc2cccc3c2CNC3=O)c1 [Compound I-54, N^1,N^3-bis(1-oxoisoindolin-4-yl)isophthalamide] | D (D indicates inhibition of <10%)
O=C1CCCc2cc(NC(=O)c3cccc(C(=O)Nc4ccc5c(c4)CCCC(=O)N5)c3)ccc2N1 [Compound I-36, N^1,N^3-bis(2-oxo-2,3,4,5-tetrahydro-1H-benzo[b]azepin-7-yl)isophthalamide] | C (C indicates inhibition of from 10% to 20%)

Compound | % Inhibition of Apyrase
O=C(Nc1ccccc1)c1ccc(C(=O)N[C@@H]2C[C@H]2c2ccccc2)cc1 [Compound I-42, N^1-phenyl-N^4-((1R,2S)-2-phenylcyclopropyl)terephthalamide] | D (D indicates inhibition of <10%)
CN1CCN(C(=O)c2ccccc2C(=O)Nc2ccc(F)cc2)CC1 [Compound I-53, N-(4-fluorophenyl)-2-(4-methylpiperazine-1-carbonyl)benzamide] | D (D indicates inhibition of <10%)
CC1(C)NC(=O)N(c2cccc(NC(=O)c3cccc(C(=O)Nc4ccccc4)c3)c2)C1=O [Compound I-11, N^1-(3-(4,4-dimethyl-2,5-dioxoimidazolidin-1-yl)phenyl)-N^3-phenylisophthalamide] | B (B indicates inhibition of from 20% to 30%)
O=C(Nc1cccc(N2CCCC2)c1)c1ccc2c(c1)C(=O)NC2=O [Compound I-10, 1,3-dioxo-N-(3-(pyrrolidin-1-yl)phenyl)isoindoline-5-carboxamide] | B (B indicates inhibition of from 20% to 30%)
Cc1n[nH]c2cc(NC(=O)c3cccc(C(=O)Nc4ccc5c(C)n[nH]c5c4)c3)ccc12 [Compound I-19, N^1,N^3-bis(3-methyl-1H-indazol-6-yl)isophthalamide] | B (B indicates inhibition of from 20% to 30%)
COc1ccccc1NC(=O)c1ccccc1C(=O)N(C)Cc1ccccc1 [Compound I-40, N^1-benzyl-N^2-(2-methoxyphenyl)-N1-methylphthalamide] | D (D indicates inhibition of <10%)
CCCNC(=O)c1cccc(C(=O)Nc2ccc3c[nH]nc3c2)c1 [Compound I-52, N^1-(2H-indazol-6-yl)-N^3-propylisophthalamide] | D (D indicates inhibition of <10%)
N#Cc1cccc(NC(=O)c2ccc(C(=O)Nc3cccc(C#N)c3)cc2)c1 [Compound I-67, N^1,N^4-bis(3-cyanophenyl)terephthalamide] | A (A indicates inhibition above 30%)
CNC(=O)c1cccc(C(=O)Nc2ccc(NS(=O)(=O)C(F)(F)F)cc2)c1 [Compound I-56, N^1-methyl-N^3-(4-((trifluoromethyl)sulfonamido)phenyl)iso-phthalamide] | D (D indicates inhibition of <10%)
O=C(Nc1ccc2c(c1)OCCO2)c1ccc(C(=O)Nc2ccc3c(c2)OCCO3)cc1 [Compound I-6, N^1,N^4-bis(2,3-dihydrobenzo[b][1,4]dioxin-6-yl)terephthalamide] | A (A indicates inhibition above 30%)
Cc1cccc(C)c1NC(=O)c1ccccc1C(=O)N(C)Cc1ccccc1 [Compound I-37, N^1-benzyl-N^2-(2,6-dimethylphenyl)-N1-methylphthalamide] | D (D indicates inhibition of <10%)
Cc1cnc(NC(=O)c2ccc(C(=O)Nc3ccccc3)cc2)[nH]1 [Compound I-38, N^1-(5-methyl-1H-imidazol-2-yl)-N^4-phenylterephthalamide] | D (D indicates inhibition of <10%)
COc1cc(NC(=O)c2ccc(C(=O)Nc3cc(OC)cc(OC)c3)cc2)cc(OC)c1 [Compound I-20, N1,N4-bis(3,5-dimethoxyphenyl)terephthalamide] | C (C indicates inhibition of from 10% to 20%)
O=C(Nc1ccccc1-c1ncc[nH]1)c1ccc(C(=O)NC2CC2)cc1 [Compound I-47, N^1-(2-(1H-imidazol-2-yl)phenyl)-N^4-cyclopropylterephthalamide] | D (D indicates inhibition of <10%)
CNC(=O)c1cccc(C(=O)Nc2ccc(C#N)c(C(F)(F)F)c2)c1 [Compound I-35, N^1-(4-cyano-3-(trifluoromethyl)phenyl)-N^3-methylisophthalamide] | C (C indicates inhibition of from 10% to 20%)
O=C(Nc1ccc(OC(F)(F)C(F)F)cc1)c1cccc(C(=O)Nc2ccc(OC(F)(F)C(F)F)cc2)c1 [Compound I-62, N^1,N^3-bis(4-(1,1,2,2-tetrafluoroethoxy)phenyl)isophthalamide] | A (A indicates inhibition above 30%)
CNC(=O)c1cccc(C(=O)Nc2cccc(NC3CCCC3)c2)c1 [Compound I-44, N^1-(3-(cyclopentylamino)phenyl)-N^3-methylisophthalamide] | D (D indicates inhibition of <10%)
